We go through 24 molecules from PubChem BioAssay (NCI).

What all share (assay): growth of human tumour cells (NCI), 48 h
For experiment [1], the system named is K-562 leukemia.
Experiment [2] deals with EKVX NSCLC.
The subject of experiment [3] is LOX IMVI melanoma.
Experiment [4] concerns OVCAR-8 ovarian.
Experiment [5] deals with BT-549 breast.
The test system of experiment [6] is T-47D breast.
The test system of experiment [7] is HCC-2998 colon.
Experiment [8] deals with SK-MEL-5 melanoma.
The test system of experiment [9] is CCRF-CEM leukemia.

Molecules are shown by their SMILES. “And” between values parts separate entries of the source, which are not always exact repeats. Equal entries are not always repeated.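 Where inhibition never reached the appropriate level, the endpoint shown equals the highest concentration tested. Otherwise, values were interpolated linearly from a five-concentration, 48-hour dose response in 96-well plates. The concentration for 50% growth inhibition is given as GI50. Definition used: TGI = concentration required for complete inhibition of growth.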

In the case of `COC1/C=C/C(C)C(C(C)C(OC)C(C)CCC(=O)C(C)C(C/C=C/N(C)C=O)OC)OC(=O)/C=C/C=C(\C)CC(OC)C(OC)C2=CC(=O)O[C@@H](C(C)C(OC)CC(OC)/C=C/C(C)C(O)C1)[C@H]2O` (stereo partly specified), the TGI in [1] was more than 100 µM; in experiment [2], 0.441 µM; in experiment [3], 0.0755 µM; in experiment [4], 0.829 µM; in experiment [5] it was 0.544 µM; in experiment [6], 0.538 µM. Besides, the TGI in experiment [7] came out at 0.359 µM; in [8], 0.206 µM.

As for `CCS(=O)(=O)c1c2cc(OC)ccc2nc2ccc(OC)cc12`, the TGI in experiment [1], in [2], in experiment [3], in [4], in experiment [6] and in experiment [7] was more than 100 µM in each case. The TGI in experiment [9] is more than 100 µM.

On to `COc1cc(C2S/C(=C/c3ccccc3)C(=O)N2c2cccc([N+](=O)[O-])c2)cc(OC)c1OC` (stereo unspecified), for which the TGI in experiment [1] is more than 100 µM; in experiment [2], more than 100 µM; in experiment [3] it was more than 100 µM; in [4], more than 100 µM; in experiment [5], more than 100 µM; in [6], 21.4 µM. Also, the TGI in experiment [7] and in experiment [8] was more than 100 µM each time.

As to `CC1(C)[C@@H]2C[C@H]1C(Cc1cccc(C[C@H]3c4cc(-c5ccccn5)ncc4[C@H]4C[C@@H]3C4(C)C)c1)c1cc(-c3ccccn3)ncc12` (stereo partly specified), the TGI in experiment [1] was more than 100 µM; in experiment [2] it was more than 46.8 µM; in experiment [3], 4.15 µM; in experiment [4], more than 44.2 µM; in experiment [5], more than 93.5 µM; in experiment [6], more than 100 µM. Besides, the TGI was more than 100 µM in experiment [7] and more than 35.8 µM in experiment [8].

For `O=C(Nc1cccc(-n2ccc3c(NC(=O)c4ccccc4)nccc32)c1)c1cc(N2CCOCC2)cc(C(F)(F)F)c1`, the GI50 was 0.0506 µM in [1]; 0.802 µM in experiment [2]; 0.0912 µM in [3]; 0.286 µM in experiment [4]; more than 51.8 µM in [6]; 0.462 µM in experiment [7]. In experiment [8], the GI50 is 0.0671 µM. The TGI in [1], in experiment [2], in experiment [3], in [4], in experiment [6] and in experiment [7] was more than 100 µM in each case. The TGI in [8] was 0.249 µM.

For the molecule `CCOC(=O)N(C)C1(c2ccccc2)CCN(CCCC(=O)c2ccc(F)cc2)CC1`, the TGI in experiment [1] was 72.7 µM; in [2] it was more than 100 µM; in experiment [3], 42.3 µM; in experiment [4] it was more than 100 µM; in experiment [6] it was more than 100 µM; in [7] it was 42.3 µM. For the same molecule, the TGI is more than 100 µM in [9] and 31.3 µM in [8].

With `c1ccc(C2=C(c3ccccc3)P(c3ccccc3)C2)cc1` (stereo unspecified), the TGI in experiment [4], in experiment [6], in [7] and in [9] was more than 100 µM throughout.

Consider `NC(=O)CS(=O)CC(N)C(=O)O` (stereo unspecified), for which the TGI in experiment [1], in experiment [2], in experiment [3], in experiment [4], in experiment [5] and in experiment [6] was more than 100 µM in each case. For the same molecule, the TGI in experiment [7] and in experiment [8] was more than 100 µM in each case.

On to `CN1CC2CC(C1)c1cccc(=O)n1C2` (stereo unspecified), for which the TGI in experiment [2], in [3], in experiment [4], in experiment [5], in experiment [6] and in experiment [7] was more than 100 µM in each case. The TGI in experiment [8] is more than 100 µM.

On to `CN(C)CC(NC(NCS)C(=O)NCCNc1ccc(NCCNC(=O)C(NCS)NC(CN(C)C)OCCl)c2c1C(=O)c1c(O)ccc(O)c1C2=O)OCCl` (stereo unspecified), for which the GI50 is 0.516 µM in experiment [2] and 0.0436 µM in experiment [4]. In addition, the TGI in [2] is 1.26 µM and 2.51 µM; in [3], 1.85 µM; in experiment [6], 1.62 µM; in [7] it was 1.86 µM; in experiment [8], 0.94 µM.

Turning to `COC(=O)n1c(CBr)c(Br)c2ccccc21`, the TGI is more than 100 µM in experiment [1]; more than 100 µM in experiment [4]; more than 100 µM in experiment [7]; 70.2 µM in [9]; more than 100 µM in experiment [8].

Consider `O=C(C#Cc1cn(C2CC(O)C(CO)O2)c(=O)[nH]c1=O)c1ccccc1` (stereo unspecified), for which the TGI in experiment [2] is more than 100 µM; in [3], more than 100 µM; in experiment [4], more than 100 µM; in [5], more than 100 µM; in experiment [6], 36.7 µM; in [7] it was more than 100 µM. In experiment [8], this molecule gave a TGI of more than 100 µM.

`COc1cc(CNc2nc3cc(C(F)(F)F)ccc3nc2C)cc(OC)c1OC`: the TGI in experiment [1] was 73.9 µM; in experiment [2], 67.4 µM; in experiment [3], 27.8 µM; in experiment [4], more than 100 µM; in experiment [6], 40.4 µM; in experiment [7], 37.8 µM. The TGI in experiment [9] was determined as 62.6 µM; in [8], 46.9 µM.

Take `COc1ccc2c(c1)CC[C@@H]1[C@@H]2CC[C@]2(C)C(=O)/C(=C/c3cc(OC)c(OC)c(OC)c3)C[C@@H]12`: the TGI in experiment [2] was more than 100 µM; in experiment [5] it was 63.9 µM; in experiment [6], more than 100 µM; in experiment [7], more than 100 µM; in experiment [8], more than 100 µM.

With `COC(=O)CCN(CCC(=O)OC)C1CC1`, the TGI in [1], in experiment [2], in experiment [3], in [4], in [6] and in [7] was more than 100 µM each time. The TGI in experiment [9] and in experiment [8] was more than 100 µM each time.

In the case of `O=C(O)/C=C/C(=O)O`, the TGI in experiment [1], in experiment [2], in experiment [3], in [4], in experiment [6] and in [7] was more than 100 µM in each case. The TGI in [9] and in [8] was more than 100 µM each time.

As to `COc1ccc(C2c3cc4c(cc3OC(N3CCCCC3)C2C)OCO4)cc1` (stereo unspecified), the TGI in experiment [1], in experiment [2], in experiment [3], in experiment [4], in [6] and in [9] was more than 100 µM each time. This molecule registered a TGI in [8] of more than 100 µM.

For `O=C(c1ccccc1)N1C(=S)N(c2ccc([N+](=O)[O-])cc2)C(=Nc2ccccc2)C1=Nc1ccccc1`, the TGI in experiment [1], in [2], in [4], in [5], in experiment [6] and in experiment [7] was more than 100 µM in each case. The same molecule displayed a TGI in experiment [8] of more than 100 µM.

On to `COc1ccc2c(c1)-c1nn(CCN(C)C)c3ccc(C(=O)NCCCN(C)CCCNC(=O)c4ccc5c6c(nn5CCN(C)C)-c5cc(OC)ccc5Nc46)c(c13)N2`, for which the TGI was 1.14 µM in experiment [1]; 1.68 µM in experiment [2]; 0.898 µM in experiment [3]; 0.977 µM in [4]; 0.948 µM in experiment [5]; 0.306 µM in experiment [7]. In addition, the TGI in experiment [9] stood at 0.141 µM; in experiment [8] it was 0.313 µM.

Turning to `C/C=C\C(CC(=O)NCCC1CN(C(=O)c2ccccc2)c2ccccc21)CC(=O)OC` (stereo unspecified), the TGI in experiment [1], in experiment [2], in experiment [4], in experiment [5], in [6] and in experiment [7] was more than 100 µM throughout. The molecule further displayed a TGI in experiment [8] of more than 100 µM.

For `CC(C)(NC1=NCCO1)c1ccccc1`, the TGI in experiment [2], in [3], in experiment [4], in [6], in experiment [7] and in experiment [8] was more than 100 µM throughout.

Consider `CCOC(=O)C(=Cn1c(=S)[nH]c2ccc([N+](=O)[O-])cc21)C(=O)OCC`, for which the TGI in experiment [1], in [2], in experiment [3], in experiment [4], in experiment [6] and in [7] was more than 100 µM in each case. Besides, the TGI in experiment [9] and in [8] was more than 100 µM throughout.

As to `O=C1/C(=C/c2ccco2)NC(=S)N1CN1CCOCC1`, the TGI in experiment [1], in experiment [2], in experiment [3], in experiment [4], in experiment [9] and in experiment [8] was more than 100 µM throughout.

As for `N#Cc1c(N2CCN(c3ccc([N+](=O)[O-])cc3)CC2)[n+](=O)c2ccc(Cl)cc2n1[O-]`, the TGI is more than 100 µM in experiment [1]; 10.8 µM in experiment [2]; 1.15 µM in [3]; more than 22.9 µM in experiment [4]; 1.61 µM in experiment [5]; 4.4 µM in experiment [7]. Also, the TGI in experiment [9] is 4.2 µM.
